Experimental data: patent US9212138B2, “Use of derivatives of indoles for the treatment of cancer” (CENTRE NATIONAL DE LA RECHERCHE SCIENTIFIQUE, priority 2009, dated 2015)
Read-outs that look alike come from different tables or passages of the source.

Molecular target: T1, MKLP-2 (RabK6) (Homo sapiens, UniProt O95235, S2A)
T1 construct: Expression clones for MKLP-21-519 (coding for residues 1 to 519) were obtained as follows; His-tag; made in house; host or cells: E. coli BL21(DE3)
T1 sequence (O95235 1-519 S2A limits assumed): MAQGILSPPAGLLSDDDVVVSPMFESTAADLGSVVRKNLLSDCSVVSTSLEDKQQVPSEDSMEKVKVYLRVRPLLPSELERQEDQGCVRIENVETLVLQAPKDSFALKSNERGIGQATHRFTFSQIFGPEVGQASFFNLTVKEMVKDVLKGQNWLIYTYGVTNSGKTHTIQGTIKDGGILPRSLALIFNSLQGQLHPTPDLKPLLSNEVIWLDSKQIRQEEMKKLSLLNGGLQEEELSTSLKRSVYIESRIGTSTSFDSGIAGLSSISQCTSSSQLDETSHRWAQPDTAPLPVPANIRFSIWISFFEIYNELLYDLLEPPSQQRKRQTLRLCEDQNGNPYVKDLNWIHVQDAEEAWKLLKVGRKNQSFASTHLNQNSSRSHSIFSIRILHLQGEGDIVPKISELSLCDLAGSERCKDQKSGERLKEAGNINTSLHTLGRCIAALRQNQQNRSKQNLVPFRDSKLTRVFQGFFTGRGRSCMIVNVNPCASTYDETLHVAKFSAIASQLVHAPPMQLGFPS
Assay: biochemical
Method: All experiments were performed at room temperature using a 96-well Sunrise photometer (Tecan, Maennedorf, Switzerland) at a final volume of 100 μl per well.
Steady-state ATPase rates were measured using the pyruvate kinase/lactate dehydrogenase-linked assay in buffer A25A (25 mM potassium ACES, pH 6.9, 2 mM MgAc2, 2 mM Na-EGTA, 0.1 mM Na-EDTA, 1 mM β-mercaptoethanol) supplemented with 1 mM MgATP; 2 mM PEP; 0.25 mM NADH; 3-10 μg/ml pyruvate kinase; 3 μg/ml lactate dehydrogenase and 8 μM taxol.
The data were analyzed using Kaleidagraph 3.0 (Synergy Software, Reading, Pa.) and Microsoft Excel to obtain the kinetic variables.
When necessary, the inhibitor concentrations were adapted depending on the initial IC50 value. Experiments were performed in triplicate and averaged data points are shown with error bars±SD.

[1] = basal ATPase activity, absence of MTs, read-out: RabK6 basal IC50 X

Structure (SMILES)	IC50 [µM]	IC50 [1] [µM]
COc1ccc2[nH]cc(C(C)=Cc3cccnc3)c2c1 (racemic) [Example 59, 5-methoxy-3-(1-(pyridin-3-yl)prop-1-en-2-yl)-1H-indole]	< 5	
N#C/C(=C\c1ccccn1)c1c[nH]c2ccccc12 [Example 3, (Z)-2-(1H-indol-3-yl)-3-pyridin-2-yl-acrylonitrile]		> 50
COc1ccc2[nH]cc(/C(C#N)=C/c3cccnc3)c2c1 [Example 4, (Z)-2-(5-methoxy-1H-indol-3-yl)-3-pyridin-3-yl-acrylonitrile]		< 5
N#C/C(=C\c1cccnc1)c1c[nH]c2ccc(OCc3ccccc3)cc12 [Example 5, (Z)-2-(5-benzyloxy-1H-indol-3-yl)-3-pyridin-3-yl-acrylonitrile]		> 50
COc1ccc2[nH]cc(/C(C#N)=C/c3ccccn3)c2c1 [Example 6, (Z)-2-(5-methoxy-1H-indol-3-yl)-3-pyridin-2-yl-acrylonitrile]		10 to 20
COc1ccc2[nH]cc(/C(C#N)=C/c3cc(OC)c(O)c(OC)c3)c2c1 [Example 7, (Z)-3-(4-hydroxy-3,5-dimethoxy-phenyl)-2-(5-methoxy-1H-indol-3-yl)-acrylonitrile]		20 to 50
N#C/C(=C\c1ccccc1)c1c[nH]c2ccccc12 [Example 9, (Z)-2-(1H-indol-3-yl)-3-phenyl-acrylonitrile]		20 to 50
N#C/C(=C\c1ccc2c(c1)OCO2)c1c[nH]c2ccccc12 [Example 11, (Z)-3-benzo[1,3]dioxol-5-yl-2-(1H-indol-3-yl)-acrylonitrile]		10 to 20
COc1cc(/C=C(\C#N)c2c[nH]c3ccc(OC)cc23)cc(OC)c1 [Example 14, (Z)-3-(3,5-dimethoxy-phenyl)-2-(5-methoxy-1H-indol-3-yl)-acrylonitrile]		5 to 10
N#C/C(=C\c1cncnc1)c1c[nH]c2ccccc12 [Example 15, (Z)-2-(1H-indol-3-yl)-3-pyrimidin-5-yl-acrylonitrile]		10 to 20
COc1ccc2[nH]cc(/C(C#N)=C/c3cncnc3)c2c1 [Example 16, (Z)-2-(5-methoxy-1H-indol-3-yl)-3-pyrimidin-5-yl-acrylonitrile]		5 to 10
COc1ccc2[nH]cc(C(C#N)Cc3cccnc3)c2c1 (stereo not drawn) [Example 18, 2-(5-methoxy-1H-indol-3-yl)-3-pyridin-3-yl-propionitrile]		20 to 50
CC(=O)Oc1ccc2[nH]cc(/C(C#N)=C/c3cccnc3)c2c1 [Example 20, 3-(1-cyano-2-(pyridin-3-yl)vinyl)-1H-indol-5-yl-acetate]		< 5
COCC(=O)Oc1ccc2[nH]cc(/C(C#N)=C/c3cccnc3)c2c1 [Example 21, 3-(1-cyano-2-(pyridin-3-yl)vinyl)-1H-indol-5-yl-methoxyacetate]		5 to 10
CCOc1ccc2[nH]cc(/C(C#N)=C/c3cccnc3)c2c1 [Example 22, (Z)-2-(5-ethoxy-1H-indol-3-yl)-3-pyridin-3-yl-acrylonitrile]		< 5
CC(C)Oc1ccc2[nH]cc(/C(C#N)=C/c3cccnc3)c2c1 [Example 23, (Z)-2-(5-isopropoxy-1H-indol-3-yl)-3-pyridin-3-yl-acrylonitrile]		< 5
N#C/C(=C\c1cccnc1)c1c[nH]c2ccc(Cl)cc12 [Example 24, (Z)-2-(5-chloro-1H-indol-3-yl)-3-pyridin-3-yl-acrylonitrile]		< 5
N#C/C(=C\c1cccnc1)c1c[nH]c2ccc(F)cc12 [Example 25, (Z)-2-(5-fluoro-1H-indol-3-yl)-3-pyridin-3-yl-acrylonitrile]	< 5	

Structure (SMILES)	IC50 [µM]	IC50 [1] [µM]
COc1ccc2c(/C(C#N)=C/c3cccnc3)c[nH]c2c1 [Example 26, (Z)-2-(6-methoxy-1H-indol-3-yl)-3-pyridin-3-yl-acrylonitrile]	5 to 10	
COc1cccc2[nH]cc(/C(C#N)=C/c3cccnc3)c12 [Example 27, (Z)-2-(4-methoxy-1H-indol-3-yl)-3-pyridin-3-yl-acrylonitrile]	10 to 20	
COc1ccc2[nH]cc(/C(C#N)=C/c3ccc(F)nc3)c2c1 [Example 28, (Z)-3-(6-fluoropyridin-3-yl)-2-(5-methoxy-1H-indol-3-yl)-acrylonitrile]	< 5	
N#C/C(=C\c1cccnc1)c1c[nH]c2ccc(O)cc12 [Example 29, (Z)-2-(5-hydroxy-1H-indol-3-yl)-3-pyridin-3-yl-acrylonitrile]	< 5	
COc1ccc2[nH]cc(/C(C#N)=C/c3cccc(C#N)c3)c2c1 [Example 30, (Z)-3-[2-cyano-2-(5-methoxy-1H-indol-3-yl)-vinyl]-benzonitrile]	< 5	
COc1ccc2[nH]cc(/C(C#N)=C/c3cnccc3C)c2c1 [Example 31, (Z)-2-(5-methoxy-1H-indol-3-yl)-3-(4-methyl-pyridin-3-yl)-acrylonitrile]	< 5	
COc1ccc2[nH]cc(/C(C#N)=C/c3cccc(C(N)=O)c3)c2c1 [Example 32, (Z)-3-[2-cyano-2-(5-methoxy-1H-indol-3-yl)-vinyl]-benzamide]	10 to 20	
COc1ccc2[nH]cc(/C(C#N)=C/c3ccc[n+](C)c3)c2c1 [Example 33, (Z)-3-[2-cyano-2-(5-methoxy-1H-indol-3-yl)-vinyl]-1-methylpyridinium iodide]	10 to 20	
CCCc1nc2c(ccc3[nH]cc(/C(C#N)=C/c4cccnc4)c32)o1 [Example 34, (Z)-2-(2-propyl-6H-oxazolo[4,5-e]indol-8-yl)-3-(pyridin-3-yl)acrylonitrile]	> 50	
COc1cc(-c2ccc3[nH]cc(/C(C#N)=C/c4cccnc4)c3c2)cc(OC)c1OC [Example 38, (Z)-3-(pyridin-3-yl)-2-(5-(3,4,5-trimethoxyphenyl)-1H-indol-3-yl)-acrylonitrile]	5 to 10	
N#C/C(=C\c1cccnc1)c1c[nH]c2ccc(-c3ccc(F)cc3)cc12 [Example 39, (Z)-2-(5-(4-fluorophenyl)-1H-indol-3-yl)-3-(pyridin-3-yl)-acrylonitrile]	10 to 20	
COC(=O)Nc1ccc2[nH]cc(/C(C#N)=C/c3cccnc3)c2c1 [Example 41, (Z)-methyl 3-(1-cyano-2-(pyridin-3-yl)vinyl)-1H-indol-5-ylcarbamate]	< 5	
N#C/C(=C\c1cccc([N+](=O)[O-])c1)c1c[nH]c2ccccc12 [Example 42, (Z)-2-(1H-indol-3-yl)-3-(3-nitro-phenyl)-acrylonitrile]	> 50	
COc1ccc2[nH]cc(/C(C#N)=C/c3cccc([N+](=O)[O-])c3)c2c1 [Example 43, (Z)-2-(5-methoxy-1H-indol-3-yl)-3-(3-nitro-phenyl)-acrylonitrile]	> 50	
N#C/C(=C\c1cccc(N)c1)c1c[nH]c2ccccc12 [Example 44, (Z)-3-(3-amino-phenyl)-2-(1H-indol-3-yl)-acrylonitrile]	> 50	
COc1ccc2[nH]cc(/C(C#N)=C/c3cccc(N)c3)c2c1 [Example 45, (Z)-3-(3-amino-phenyl)-2-(5-methoxy-1H-indol-3-yl)-acrylonitrile]	> 50	
COc1cncc(/C=C(\C#N)c2c[nH]c3ccc(OC)cc23)c1 [Example 46, (Z)-2-(5-methoxy-1H-indol-3-yl)-3-(5-methoxy-pyridin-3-yl)-acrylonitrile]	10 to 20	
COc1ccc2[nH]cc(/C(C#N)=C/c3cnccc3Cl)c2c1 [Example 47, (Z)-3-(4-chloro-pyridin-3-yl)-2-(5-methoxy-1H-indol-3-yl)-acrylonitrile]	5 to 10	
